Consider six compounds from publication PMC3206071, “Characterization of a Truncated Metabotropic Glutamate Receptor in a Primitive Metazoan, the Parasitic Flatworm Schistosoma mansoni” (PLoS ONE, 2011).

Assay [1] has as its target T1, SmGBP (S. mansoni glutamate-binding protein) (Schistosoma mansoni, UniProt E2IFW0). Briefly: [3H]glutamate radioligand competition at […], purified SmGBP-His. (In general: Displacement assays read how much labelled ligand stays bound in the presence of the test substance.)
Assay [2] concerns the target T1, SmGBP (S. mansoni glutamate-binding protein). The assay is described as above. Conditions: read-out: % inhibition at 10 mM.
The target is the same in assay [3]. Briefly: [3H]glutamate radioligand competition with unlabelled glutamate, PEG precipitation, purified SmGBP-His.

T1 sequence (E2IFW0 entry or part of it): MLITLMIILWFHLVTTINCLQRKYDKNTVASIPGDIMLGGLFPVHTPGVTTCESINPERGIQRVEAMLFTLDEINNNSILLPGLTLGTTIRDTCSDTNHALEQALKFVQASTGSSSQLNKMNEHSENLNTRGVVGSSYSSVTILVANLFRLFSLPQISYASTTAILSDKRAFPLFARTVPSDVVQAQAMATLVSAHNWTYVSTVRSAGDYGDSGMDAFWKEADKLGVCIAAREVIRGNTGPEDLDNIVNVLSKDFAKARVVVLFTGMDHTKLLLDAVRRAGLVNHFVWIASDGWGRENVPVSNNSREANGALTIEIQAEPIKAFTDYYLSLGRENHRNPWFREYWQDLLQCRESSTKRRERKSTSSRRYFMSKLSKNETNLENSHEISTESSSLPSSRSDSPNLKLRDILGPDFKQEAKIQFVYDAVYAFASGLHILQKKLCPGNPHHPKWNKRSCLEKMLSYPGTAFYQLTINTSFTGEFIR

As for `N[C@@H](CCP(=O)(O)O)C(=O)O` [L-AP4, L-(+)-2-Amino-4-phosphonobutyric acid], in assay [1], the “[3H]glutamate radioligand competition at 10 mM, purified SmGBP-His” value (“[3H]glutamate radioligand competition” below) is “able to compete with [^3H]glutamate, AP4 (mGluR III agonist) and S)-MCPG (mGluRs I/II antagonist) being the strongest”. As for `N[C@@H](CC(=O)O)C(=O)O` [aspartate], in assay [2], the inhibition (commonly the change of the read-out against control, counted positive when it falls) at 10000 µM came out at 84%. Turning to `N[C@H](C(=O)O)c1cc(O)cc(O)c1` [(S)-3,5-DHPG, (S)-3,5-Dihydroxyphenylglycine], the “[3H]glutamate radioligand competition” value in assay [1] is “also recognized some glutamatergic agents, for example, agonists DHPG and AP4 and the antagonist, MCPG”. Consider `C[C@@](N)(C(=O)O)c1ccc(C(=O)O)cc1` [(S)-MCPG, (S)-a-Methyl-4-carboxyphenylglycine], for which the “[3H]glutamate radioligand competition” value in assay [1] was “able to compete with [^3H]glutamate, AP4 (mGluR III agonist) and S)-MCPG (mGluRs I/II antagonist) being the strongest”. For `N[C@@H](CCC(=O)O)C(=O)O` [glutamate], the IC50 – broadly, the concentration at which inhibition is half-maximal – in assay [3] worked out at 300 ± 50 nM. For the compound `NC(=O)CC[C@H](N)C(=O)O` [glutamine], in assay [2], the inhibition at 10000 µM came out at 77%.
